Laboratory results reported in patent US8394828B2 (Janssen Pharmaceutica, NV, priority 2003, dated 2013).
Where “and” joins values, the source holds several entries; their conditions need not be identical. Equal values may be shown once. Read-outs that look alike come from different tables or passages of the source.

Legend:
human VR1 [1] = biological target: T1, human VR1 (Homo sapiens, UniProt Q8NER1); assay: Human VR1 [3H] RTX binding assay; conditions: for Ki: hVR1; for inhibition at 1 µM: compound at 1 μM
T1 construct: expressed in transfected cells; host or cells: HEK293
Method: Compounds of the present invention were tested for their ability to inhibit the binding of [^3H] RTX to hVR1 receptors in a [^3H]
HEK293 cells were transfected with human VR1 vanilloid receptors and washed with Hank's Balanced Salt Solution, dissociated with cell dissociation buffer (Sigma), and then centrifuged at 1000×g for 5 min. […] The pelleted membranes were kept in an −80° C. freezer.
Approximately 120 μg protein/ml from membranes were incubated with indicated concentrations of [^3H] RTX in 0.5 ml of the HEPES buffer (pH 7.4) containing 0.25 mg/mL fatty acid-free bovine serum albumin at 37° C. for 60 min. […] The tip of the microcentrifuge tube containing the pellet was cut off. Bound radioactivity was quantified by scintillation counting. Non-specific binding was tested in the presence of 200 nM unlabeled RTX.

human VR1 [2] = biological target: T1, human VR1; assay: Human VR1 functional assay (intracellular Ca++, FLIPR, capsaicin challenge); assay type: cell-based
Method: The functional activity of the test compounds was determined by measuring changes in intracellular calcium concentration using a Ca^++-sensitive fluorescent dye and FLIPR™ technology.
EC50 or IC50 values were determined from dose-response studies.

[3] = 3H-RTX binding, read-out: 3H-RTX binding assay Ki hVR1
[4] = hVR1, capsaicin challenge, read-out: FLIPR functional assay IC50 hVR1
[5] = FLIPR functional assay IC50 hVR1 60 min, 60 min
[6] = 3H-RTX binding assay Ki hVR1, 3H-RTX binding

T1 sequence (Q8NER1 whole entry): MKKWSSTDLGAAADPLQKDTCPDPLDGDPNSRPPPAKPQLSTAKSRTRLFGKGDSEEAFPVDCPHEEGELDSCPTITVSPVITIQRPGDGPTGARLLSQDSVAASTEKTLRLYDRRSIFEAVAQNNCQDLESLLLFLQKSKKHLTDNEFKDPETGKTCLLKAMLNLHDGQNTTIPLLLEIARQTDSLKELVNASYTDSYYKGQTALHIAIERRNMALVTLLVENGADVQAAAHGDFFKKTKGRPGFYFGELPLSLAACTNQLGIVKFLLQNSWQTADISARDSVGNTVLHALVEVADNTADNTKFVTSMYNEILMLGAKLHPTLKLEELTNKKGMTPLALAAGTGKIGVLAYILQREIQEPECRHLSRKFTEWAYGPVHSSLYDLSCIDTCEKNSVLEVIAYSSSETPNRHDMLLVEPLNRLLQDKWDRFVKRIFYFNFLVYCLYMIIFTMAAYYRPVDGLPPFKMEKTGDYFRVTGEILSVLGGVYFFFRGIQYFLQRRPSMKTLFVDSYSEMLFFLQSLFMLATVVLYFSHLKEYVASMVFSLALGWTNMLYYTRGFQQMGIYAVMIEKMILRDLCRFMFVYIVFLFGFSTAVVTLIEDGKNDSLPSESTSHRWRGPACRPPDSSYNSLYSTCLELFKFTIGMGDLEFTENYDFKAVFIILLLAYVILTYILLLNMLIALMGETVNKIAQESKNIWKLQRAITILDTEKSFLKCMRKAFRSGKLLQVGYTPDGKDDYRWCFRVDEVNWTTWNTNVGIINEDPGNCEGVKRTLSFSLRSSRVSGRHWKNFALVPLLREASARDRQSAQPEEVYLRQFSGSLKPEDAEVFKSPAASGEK

Compound | Ki (human VR1 [1]; [3]) | IC50 (human VR1 [2]; [4]) | inhibition at 1 µM (human VR1 [1]; 3H-RTX binding) [%] | IC50 (human VR1 [2]; [5]) [nM] | Ki (human VR1 [1]; [6]) [nM]
CC(C)n1c(C(F)(F)F)nc2cc(C(=O)Nc3cnc4ccccc4c3)ccc21 [1-Isopropyl-2-trifluoromethyl-1H-benzoimidazole-5-carboxylic acid quinolin-3-ylamide] | 364 nM | 8000 nM |  |  | 
CCCCCC=CCCCN(C)c1ccc(C(=O)Nc2cnc3ccccc3c2)cc1 [4-(Dec-4-enyl-methyl-amino)-N-quinolin-3-yl-benzamide] | 23.1 nM |  | 104 | 66 | 
O=C(Nc1cnc2ccccc2c1)c1ccc2c(c1)CCN2 [2,3-Dihydro-1H-indole-5-carboxylic acid quinolin-3-ylamide] |  | 10500 nM | 1 |  | 
O=C(Nc1cnc2ccccc2c1)c1ccc(N2CC[C@@H]3CCCC[C@@H]3C2)nc1 (relative stereo) [cis-6-(Octahydro-isoquinolin-2-yl)-N-quinolin-3-yl-nicotinamide] | 36.8 nM | 420 nM | 99 |  | 
CN(CC1CCCCC1)c1ccc(C(=O)Nc2cnc3ccccc3c2)cc1 [4-(Cyclohexylmethyl-methyl-amino)-N-quinolin-3-yl-benzamide] | 15.7 nM | 1700 nM | 104 |  | 
CN(c1ccc(C(=O)Nc2cnc3ccccc3c2)cc1)C1CCCCCC1 [4-(Cycloheptyl-methyl-amino)-N-quinolin-3-yl-benzamide] | 14 nM | 400 nM | 100 |  | 
CN(c1ccc(C(=O)Nc2cnc3ccccc3c2)cn1)C1CCCCC1 [6-(Cyclohexyl-methyl-amino)-N-quinolin-3-yl-nicotinamide] | 35.9 nM and 218 nM | 300 nM and 245 nM | 99 |  | 
CCC=CCCCCCN(C)c1ccc(C(=O)Nc2cnc3ccccc3c2)cc1 [4-(Methyl-non-6-enyl-amino)-N-quinolin-3-yl-benzamide] | 36.5 nM |  | 101 | 48 | 
O=C(CCc1ccc2c(c1)CCC2)Nc1cnc2ccccc2c1 [3-Indan-5-yl-N-quinolin-3-yl-propionamide] | 158 nM | 10000 nM |  |  | 
CCCC1CCN(c2ccc(C(=O)Nc3cnc4ccccc4c3)cn2)CC1 [4-Propyl-3,4,5,6-tetrahydro-2H-{1,2′}bipyridinyl-5′-carboxylic acid quinolin-3-ylamide] | 117 nM | 490 nM | 93 |  | 
Cc1cc(C(=O)Nc2cnc3ccccc3c2)ccc1N(C)CC1CCCCC1 [4-(Cyclohexylmethyl-methyl-amino)-3-methyl-N-quinolin-3-yl-benzamide] | 68.3 nM | 10000 nM |  |  | 
O=C(Nc1cnc2ccccc2c1)c1ccc(N2CC[C@@H]3CCCC[C@@H]3C2)cc1 (relative stereo) [cis-4-(Octahydro-isoquinolin-2-yl)-N-quinolin-3-yl-benzamide] | 45.6 nM | 185 nM | 105 | 220 | 
CCCCCCCNc1ccccc1C(=O)Nc1cnc2ccccc2c1 [2-Heptylamino-N-quinolin-3-yl-benzamide] | 1120 nM | 1600 nM | 79 | 5000 | 
O=C(Nc1cnc2ccccc2c1)c1ccc(NCCc2ccccc2)cc1 [4-Phenethylamino-N-quinolin-3-yl-benzamide] |  | 9200 nM | 31 |  | 
CC1(C)CCC(C)(C)c2cc(CCC(=O)Nc3cnc4ccccc4c3)ccc21 [N-Quinolin-3-yl-3-(5,5,8,8-tetramethyl-5,6,7,8-tetrahydro-naphthalen-2-yl)-propionamide] | 13 nM | 70 nM |  |  | 
O=C(Nc1cnc2ccccc2c1)c1ccc(N2CCN(C(=O)Cc3ccccc3)CC2)cc1 [4-(4-Phenylacetyl-piperazin-1-yl)-N-quinolin-3-yl-benzamide] | 100000 nM | 10000 nM |  |  | 
CCCCCCCNc1cccc(C(=O)Nc2cnc3ccccc3c2)c1 [3-Heptylamino-N-quinolin-3-yl-benzamide] |  | 10000 nM | 20 |  | 
CCCCC1CCC(C(=O)Nc2cnc3ccccc3c2)CC1 (centres unmarked) [4-Butyl-cyclohexanecarboxylic acid quinolin-3-ylamide] | 124 nM | 170 nM | 81 |  | 
CN(C(=O)c1ccc(N(C)C2CCCCC2)cc1)c1cnc2ccccc2c1 [4-(Cyclohexyl-methyl-amino)-N-methyl-N-quinolin-3-yl-benzamide] |  | 2000 nM | 12 |  | 
CCCCC(C)c1ccc(C(=O)Nc2cnc3ccccc3c2)cc1 (centres unmarked) | 13.2 nM and 15 nM | 1100 nM and 10000 nM |  |  | 

Compound | Ki (human VR1 [1]; [3]) | IC50 (human VR1 [2]; [4]) | inhibition at 1 µM (human VR1 [1]; 3H-RTX binding) [%] | IC50 (human VR1 [2]; [5]) [nM] | Ki (human VR1 [1]; [6]) [nM]
CCCn1ccc2cc(CCC(=O)Nc3cnc4ccccc4c3)ccc21 [3-(1-Propyl-1H-indol-5-yl)-N-quinolin-3-yl-propionamide] | 264 nM | 480 nM | 59 |  | 
CCCCCNc1ccc(C(=O)Nc2cnc3ccccc3c2)c(Cl)c1 [2-Chloro-4-pentylamino-N-quinolin-3-yl-benzamide] |  | 10000 nM | 40 |  | 
CC(C)(c1ccc(CCC(=O)Nc2cnc3ccccc3c2)cc1)C1CCCCC1 [3-{4-(1-Cyclohexyl-1-methyl-ethyl)-phenyl}-N-quinolin-3-yl-propionamide] | 31.5 nM | 570 nM |  |  | 
O=C(Nc1cnc2ccccc2c1)c1ccc(N2CCCCCC2)nc1 [6-Azepan-1-yl-N-quinolin-3-yl-nicotinamide] | 124 nM | 215 nM | 44 |  | 
CN(c1ccc(C=CC(=O)Nc2cnc3ccccc3c2)cc1)C1CCCCC1 [3-{4-(Cyclohexyl-methyl-amino)-phenyl}-N-quinolin-3-yl-acrylamide] | 131 nM |  | 91 | 400 | 
CCCCC(C)(C)c1cc(OC)c(CCC(=O)Nc2cnc3ccccc3c2)c(OC)c1 [3-{4-(1,1-Dimethyl-pentyl)-2,6-dimethoxy-phenyl}-N-quinolin-3-yl-propionamide] |  | 1000 nM | 96 |  | 10.6
O=C(Nc1cnc2ccccc2c1)c1ccc2c(c1)CCN2C1CCCCC1 [1-Cyclohexyl-2,3-dihydro-1H-indole-5-carboxylic acid quinolin-3-ylamide] | 4.87 nM | 44 nM | 103 | 74 | 
CCCCCCCN(C)c1cccc(C(=O)Nc2cnc3ccccc3c2)c1 [3-(Heptyl-methyl-amino)-N-quinolin-3-yl-benzamide] | 142 nM | 8800 nM | 82 |  | 
CN(Cc1ccccc1)c1ccc(C(=O)Nc2cnc3ccccc3c2)cc1 [4-(Benzyl-methyl-amino)-N-quinolin-3-yl-benzamide] | 75.3 nM | 2300 nM | 98 | 370 | 
CCCC(=O)N1CCc2cc(C(=O)Nc3cnc4ccccc4c3)ccc21 [1-Butyryl-2,3-dihydro-1H-indole-5-carboxylic acid quinolin-3-ylamide] |  | 1800 nM | 2 |  | 
CCCCCN1CCCc2cc(C(=O)Nc3cnc4ccccc4c3)ccc21 [1-Pentyl-1,2,3,4-tetrahydro-quinoline-6-carboxylic acid quinolin-3-ylamide] |  | 1600 nM | 93 | 470 | 39.1
O=C(CCc1ccc(CC2CCCCC2)cc1)Nc1cnc2ccccc2c1 [3-(4-Cyclohexylmethyl-phenyl)-N-quinolin-3-yl-propionamide] | 94.1 nM | 670 nM |  | 35 | 
CCCCCNc1ccc(C(=O)Nc2cnc3ccccc3c2)cc1C [3-Methyl-4-pentylamino-N-quinolin-3-yl-benzamide] | 73.5 nM | 780 nM | 81 | 12 | 
O=C(Nc1cnc2ccccc2c1)c1ccc(N2CCCCCCCC2)cc1 [4-Azonan-1-yl-N-quinolin-3-yl-benzamide] | 11.8 nM | 92 nM |  |  | 
O=C(CCc1ccc2c(c1)CCN2CC1CCCCC1)Nc1cnc2ccccc2c1 [3-(1-Cyclohexylmethyl-2,3-dihydro-1H-indol-5-yl)-N-quinolin-3-yl-propionamide] | 512 nM | 1200 nM | 61 |  | 
CCCCCNc1cccc(C(=O)Nc2cnc3ccccc3c2)c1 [3-Pentylamino-N-quinolin-3-yl-benzamide] |  | 2700 nM | 12 |  | 
CCC(C)(C)c1cc(OC)c(CCC(=O)Nc2cnc3ccccc3c2)c(OC)c1 [3-{4-(1,1-Dimethyl-propyl)-2,6-dimethoxy-phenyl}-N-quinolin-3-yl-propionamide] | 52 nM | 320 nM | 93 |  | 
CN(Cc1ccccc1)c1ccc(CCC(=O)Nc2cnc3ccccc3c2)cc1 [3-{4-(Benzyl-methyl-amino)-phenyl}-N-quinolin-3-yl-propionamide] | 111 nM | 354 nM |  |  | 
CCCCCN(C)c1ccc(C(=O)Nc2cnc3ccccc3c2)cn1 [6-(Methyl-pentyl-amino)-N-quinolin-3-yl-nicotinamide] | 122 nM | 400 nM | 91 |  | 
O=C(Nc1cnc2ccccc2c1)c1ccc(N2CC[C@@H]3CCCC[C@H]3C2)nc1 (relative stereo) [trans-6-(Octahydro-isoquinolin-2-yl)-N-quinolin-3-yl-nicotinamide] | 33.2 nM | 85 nM | 104 |  | 
